{"source": "paper PMC9298630", "about": "(Journal of Food and Drug Analysis, 2018)", "key": {"[1]": {"tested_on": "rat liver microsomal NFO activity (CYP3A)", "experiment": "Inhibition of rat liver microsomal nifedipine oxidation", "type": "in vitro ADME", "details": "100 μM, 10-min NADPH-fortified pre-incubation"}, "[2]": {"details": "cited from earlier work"}, "[3]": {"details": "for AUC0–t / AUC0–∞ / CL/F (apparent clearance) / Cmax / Tmax / Vd/F / t1/2: rats, mean ± SEM"}, "[4]": {"experiment": "Stability of analytes in stored plasma samples", "details": "−80 °C, rat plasma"}, "[5]": {"details": "oral suspension (40 mg/ml), 7 days, participants; cited from earlier work"}, "[6]": {"details": "S. Chinese remedy-treated rats; cited from earlier work"}, "[7]": {"details": "oral nifedipine 3 mg/kg 1 h after SY 0.95 g/kg"}, "[8]": {"details": "oral nifedipine 3 mg/kg 1 h after SY […]"}, "[9]": {"details": "oral nifedipine 3 mg/kg together with ketoconazole 30 mg/kg"}, "[10]": {"details": "oral nifedipine 3 mg/kg, control"}}, "note": "Read-outs that look alike come from different tables or passages of the source.", "data": [{"smiles": "COc1cc2c(c(OC)c1OC)-c1c(cc(OC)c(OC)c1OC)C[C@H](C)[C@H](C)C2", "note": "[schisandrin A]", "values": [{"measurement": "decrease of NFO activity", "setting": "[1]", "result": 48, "unit": "%"}]}, {"smiles": "COC(=O)c1c(C)nc(C)c(C(=O)OC)c1-c1ccccc1[N+](=O)[O-]", "note": "[Dehydronifedipine, dehydronifedipine]", "values": [{"measurement": "AUC ratio of the dehydronifedipine to nifedipine", "setting": "[2]; rats treated with nifedipine suspension (in water)", "result": 38, "unit": "%"}, {"measurement": "half-life (terminal)", "setting": "[2]; rats, nifedipine suspended in water (10 mg/ml), oral dose 10 mg/kg", "result": 15.7, "unit": "h"}, {"measurement": "AUC0–t ratio of dehydronifedipine to nifedipine", "setting": "[2]; rats, ref 6 (Han et al.)", "result": "2.7 ± 0.3", "unit": "%"}, {"measurement": "AUC0–t ratio of dehydronifedipine to nifedipine", "setting": "[3]; control rats, oral nifedipine 3 mg/kg in 50% PEG 400", "result": "2.7 ± 0.5", "unit": "%"}, {"measurement": "AUC0–t", "setting": "[3]; [7]", "result": "0.11 ± 0.01", "unit": "µg·h/mL"}, {"measurement": "AUC0–∞", "setting": "[3]; [7]", "result": "0.13 ± 0.02", "unit": "µg·h/mL"}, {"measurement": "CL/F (apparent clearance)", "setting": "[3]; [7]", "result": "405 ± 53.3", "unit": "mL/min/kg"}, {"measurement": "Cmax", "setting": "[3]; [7]", "result": "50 ± 10", "unit": "ng/mL"}, {"measurement": "Tmax", "setting": "[3]; [7]", "result": "0.29 ± 0.05", "unit": "h"}, {"measurement": "Vd/F", "setting": "[3]; [7]", "result": "61.0 ± 13.3", "unit": "L/kg"}, {"measurement": "t1/2", "setting": "[3]; [7]", "result": "1.9 ± 0.5", "unit": "h"}, {"measurement": "AUC0–t", "setting": "[3]; [8]", "result": "0.13 ± 0.02", "unit": "µg·h/mL"}, {"measurement": "AUC0–∞", "setting": "[3]; [8]", "result": "0.24 ± 0.04", "unit": "µg·h/mL"}, {"measurement": "CL/F (apparent clearance)", "setting": "[3]; [8]", "result": "253 ± 55", "unit": "mL/min/kg"}, {"measurement": "Cmax", "setting": "[3]; [8]", "result": "40 ± 0", "unit": "ng/mL"}, {"measurement": "Tmax", "setting": "[3]; [8]", "result": "0.58 ± 0.08", "unit": "h"}, {"measurement": "Vd/F", "setting": "[3]; [8]", "result": "89.7 ± 14.4", "unit": "L/kg"}, {"measurement": "t1/2", "setting": "[3]; [8]", "result": "4.8 ± 0.8", "unit": "h"}, {"measurement": "AUC0–t", "setting": "[3]; [9]", "result": "0.46 ± 0.11 ^* h·μg/ml"}, {"measurement": "AUC0–∞", "setting": "[3]; [9]", "result": "1.77 ± 0.53 ^* h·μg/ml"}, {"measurement": "CL/F (apparent clearance)", "setting": "[3]; [9]", "result": "43.3 ± 16.7", "unit": "mL/min/kg"}, {"measurement": "Cmax", "setting": "[3]; [9]", "result": "100 ± 20", "unit": "ng/mL"}, {"measurement": "Tmax", "setting": "[3]; [9]", "result": "1.80 ± 0.55", "unit": "h"}, {"measurement": "Vd/F", "setting": "[3]; [9]", "result": "34.3 ± 7.4", "unit": "L/kg"}, {"measurement": "t1/2", "setting": "[3]; [9]", "result": "12.3 ± 3.9", "unit": "h"}, {"measurement": "AUC0–t", "setting": "[3]; [10]", "result": "0.12 ± 0.02", "unit": "µg·h/mL"}, {"measurement": "AUC0–∞", "setting": "[3]; [10]", "result": "0.14 ± 0.02", "unit": "µg·h/mL"}, {"measurement": "CL/F (apparent clearance)", "setting": "[3]; [10]", "result": "395 ± 48.3", "unit": "mL/min/kg"}, {"measurement": "Cmax", "setting": "[3]; [10]", "result": "40 ± 10", "unit": "ng/mL"}, {"measurement": "Tmax", "setting": "[3]; [10]", "result": "0.70 ± 0.12", "unit": "h"}, {"measurement": "Vd/F", "setting": "[3]; [10]", "result": "68.9 ± 9.0", "unit": "L/kg"}, {"measurement": "t1/2", "setting": "[3]; [10]", "result": "2.0 ± 0.1", "unit": "h"}, {"measurement": "14-day stability in plasma samples", "setting": "[4]", "result": "99.6–100.8%"}]}, {"smiles": "CC[C@@H]([C@H](C)O)n1ncn(-c2ccc(N3CCN(c4ccc(OC[C@@H]5CO[C@@](Cn6cncn6)(c6ccc(F)cc6F)C5)cc4)CC3)cc2)c1=O", "note": "[posaconazole]", "values": [{"measurement": "mean Cmax at 200 mg 4 times daily relative to 400 mg twice daily", "setting": "[5]", "result": 2, "unit": "fold"}]}, {"smiles": "COc1cc2c(c(OC)c1OC)-c1c(cc3c(c1OC)OCO3)CC(C)C(C)C2", "note": "(stereo not drawn) [schisandrin B]", "values": [{"measurement": "Tmax", "setting": "[6]", "result": "about 4 h"}]}]}
